Structures are written as SMILES.

On to `COc1cc(COc2nn(-c3ccccc3)cc2/C=C/c2nc(C(=O)O)cs2)ccc1OCc1nc(-c2ccco2)oc1C` [Example 187, 2-((E)-2-{3-[(4-{[2-(2-furyl)-5-methyl-1,3-oxazol-4-yl]methoxy}-3-methoxybenzyl)oxy]-1-phenyl-1H-pyrazol-4-yl}ethenyl)-1,3-thiazole-4-carboxylic acid], for which the melting point is 170 to 172 °C.
In turn, `COc1cc(COc2nn(-c3ccccc3)cc2/C=C/c2nnc(C)[nH]2)ccc1OCc1nc(-c2ccco2)oc1C` [Example 188, 3-((E)-2-{3-[(4-{[2-(2-furyl)-5-methyl-1,3-oxazol-4-yl]methoxy}-3-methoxybenzyl)oxy]-1-phenyl-1H-pyrazol-4-yl}ethenyl)-5-methyl-4H-1,2,4-triazole] returned a melting point of 165 to 166 °C.
Regarding `COc1cc(COc2nn(-c3ccccc3)cc2/C=C/C(=O)NNC(C)=O)ccc1OCc1nc(-c2ccco2)oc1C` [Example 189, (2E)-N′-acetyl-3-{3-[(4-{[2-(2-furyl)-5-methyl-1,3-oxazol-4-yl]methoxy}-3-methoxybenzyl)oxy]-1-phenyl-1H-pyrazol-4-yl}-2-propenohydrazide], the melting point lay in the range of 221 to 222 °C.
Compound `CCc1nc(/C=C\c2cn(-c3ccccc3)nc2OCc2ccc(OCc3csc(N4CCCCC4)n3)c(OC)c2)cs1` [Example 193 (Z form), 1-[4-({4-[({4-[(Z)-2-(2-ethyl-1,3-thiazol-4-yl)ethenyl]-1-phenyl-1H-pyrazol-3-yl}oxy)methyl]-2-methoxyphenoxy}methyl)-1,3-thiazol-2-yl]piperidine] came in with a melting point of 93 to 94 °C.
With `COc1cc(COc2nn(-c3ccccc3)cc2C=O)ccc1OCc1csc(N2CCCCC2)n1` [Example 196, 3-({3-methoxy-4-[(2-piperidin-1-yl-1,3-thiazol-4-yl)methoxy]benzyl}oxy)-1-phenyl-1H-pyrazole-4-carbaldehyde], the melting point lay in the range of 123 to 124 °C.
Under `COc1cc(COc2nn(-c3ccccc3)cc2C=O)ccc1OCc1csc(N2CCOCC2)n1` [Example 197, 3-({3-methoxy-4-[(2-morpholin-4-yl-1,3-thiazol-4-yl)methoxy]benzyl}oxy)-1-phenyl-1H-pyrazole-4-carbaldehyde] stands 128 to 129 °C.
`COc1cc(COc2nn(-c3ccccc3)cc2C=O)ccc1OCc1nc(N2CCCCC2)sc1C` [Example 198, 3-({3-methoxy-4-[(5-methyl-2-piperidin-1-yl-1,3-thiazol-4-yl)methoxy]benzyl}oxy)-1-phenyl-1H-pyrazole-4-carbaldehyde] showed a melting point of 180 to 181 °C.
The figure for `CCOC(=O)c1cn(Cc2cccnc2)nc1OCc1ccc(OCc2nc(-c3ccco3)oc2C)c(OC)c1` [Example 199, ethyl 3-[(4-{[2-(2-furyl)-5-methyl-1,3-oxazol-4-yl]methoxy}-3-methoxybenzyl)oxy]-1-(pyridin-3-ylmethyl)-1H-pyrazole-4-carboxylate] is 131 to 132 °C.
Regarding `COc1cc(COc2nn(Cc3cccnc3)cc2CO)ccc1OCc1nc(-c2ccco2)oc1C` [Example 200, [3-[(4-{[2-(2-furyl)-5-methyl-1,3-oxazol-4-yl]methoxy}-3-methoxybenzyl)oxy]-1-(pyridin-3-ylmethyl)-1H-pyrazol-4-yl]methanol], the melting point was 90 to 91 °C.
Under `COC(=O)c1ccccc1-c1nc(COc2ccc(COc3nn(-c4ccccc4)cc3C=O)cc2OC)c(C)o1` [Example 207, methyl 2-{4-[(4-{[(4-formyl-1-phenyl-1H-pyrazol-3-yl)oxy]methyl}-2-methoxyphenoxy)methyl]-5-methyl-1,3-oxazol-2-yl}benzoate] stands 134 to 135 °C; under `COC(=O)c1cccc(-c2nc(COc3ccc(CON4CC(C=O)=CN4c4ccccc4)cc3OC)c(C)o2)c1` [Example 208, methyl 3-{4-[(4-{[(4-formyl-1-phenyl-1H-pyrazol-2-yl)oxy]methyl}-2-methoxyphenoxy)methyl]-5-methyl-1,3-oxazol-2-yl}benzoate], 164 to 165 °C; under `COC(=O)c1ccc(-c2nc(COc3ccc(COc4nn(-c5ccccc5)cc4C=O)cc3OC)c(C)o2)cc1` [Example 209, methyl 4-{4-[(4-{[(4-formyl-1-phenyl-1H-pyrazol-3-yl)oxy]methyl}-2-methoxyphenoxy)methyl]-5-methyl-1,3-oxazol-2-yl}benzoate], 190 to 191 °C.
`COc1cc(COc2nn(-c3ccccc3)cc2C=O)ccc1OCc1nc(-c2ccccc2)sc1C` [Example 213, 3-({3-methoxy-4-[(5-methyl-2-phenyl-1,3-thiazol-4-yl)methoxy]benzyl}oxy)-1-phenyl-1H-pyrazole-4-carbaldehyde] returned a melting point of 164 to 165 °C.
The compound `COc1cc(COc2nn(-c3ccccc3)cc2C=O)ccc1OCc1coc(-c2ccco2)n1` [Example 218, 3-[(4-{[2-(2-furyl)-1,3-oxazol-4-yl]methoxy}-3-methoxybenzyl)oxy]-1-phenyl-1H-pyrazole-4-carbaldehyde] had a melting point of 162 to 163 °C.
The figure for `COc1cc(COc2nn(-c3ccccc3)cc2C=O)ccc1OCc1sc(-c2ccccc2)nc1C` [Example 219, 3-({3-methoxy-4-[(4-methyl-2-phenyl-1,3-thiazol-5-yl)methoxy]benzyl}oxy)-1-phenyl-1H-pyrazole-4-carbaldehyde] is 171 to 172 °C; for `COc1cc(COc2nn(-c3ccccc3)cc2C=O)ccc1OCc1cn(-c2ccccn2)nc1C` [Example 220, 3-({3-methoxy-4-[(3-methyl-1-pyridin-2-yl-1H-pyrazol-4-yl)methoxy]benzyl}oxy)-1-phenyl-1H-pyrazole-4-carbaldehyde] it is 179 to 180 °C.
`COc1cc(COc2nn(-c3ccccc3)cc2C=O)ccc1OCc1nc(-c2ccccc2)cn1C` [Example 221, 3-({3-methoxy-4-[(1-methyl-4-phenyl-1H-imidazol-2-yl)methoxy]benzyl}oxy)-1-phenyl-1H-pyrazole-4-carbaldehyde] returned a melting point of 126 to 127 °C.
On to `CCc1nc(/C=C/c2cn(-c3ccccc3)nc2OCc2ccc(OCc3nc(-c4cccc(C(=O)OC)c4)oc3C)c(OC)c2)cs1` [Example 225 (E form), methyl 3-[4-({4-[({4-[(E)-2-(2-ethyl-1,3-thiazol-4-yl)ethenyl]-1-phenyl-1H-pyrazol-3-yl}oxy)methyl]-2-methoxyphenoxy}methyl)-5-methyl-1,3-oxazol-2-yl]benzoate], for which the melting point fell in the range of 132 to 133 °C.
Under `CCc1nc(/C=C\c2cn(-c3ccccc3)nc2OCc2ccc(OCc3nc(-c4cccc(C(=O)OC)c4)oc3C)c(OC)c2)cs1` [Example 225 (Z form), methyl 3-[4-({4-[({4-[(Z)-2-(2-ethyl-1,3-thiazol-4-yl)ethenyl]-1-phenyl-1H-pyrazol-3-yl}oxy)methyl]-2-methoxyphenoxy}methyl)-5-methyl-1,3-oxazol-2-yl]benzoate] stands 125 to 126 °C.
`COc1cc(COc2nn(-c3ccccc3)cc2C=O)ccc1OCc1nc(-c2cccnc2)oc1C` [Example 227, 3-({3-methoxy-4-[(5-methyl-2-pyridin-3-yl-1,3-oxazol-4-yl)methoxy]benzyl}oxy)-1-phenyl-1H-pyrazole-4-carbaldehyde] gave a melting point of 161 to 162 °C.
The compound `CCc1nc(/C=C/c2cn(-c3ccccc3)nc2OCc2ccc(OCc3nc(N4CCOCC4)sc3C)c(OC)c2)cs1` [Example 232 (E form), 4-[4-({4-[({4-[(E)-2-(2-ethyl-1,3-thiazol-4-yl)ethenyl]-1-phenyl-1H-pyrazol-3-yl}oxy)methyl]-2-methoxyphenoxy}methyl)-5-methyl-1,3-thiazol-2-yl]morpholine] registered a melting point of 76 to 78 °C.
The figure for `CCc1nc(/C=C\c2cn(-c3ccccc3)nc2OCc2ccc(OCc3nc(N4CCOCC4)sc3C)c(OC)c2)cs1` [Example 232 (Z form), 4-[4-({4-[({4-[(Z)-2-(2-ethyl-1,3-thiazol-4-yl)ethenyl]-1-phenyl-1H-pyrazol-3-yl}oxy)methyl]-2-methoxyphenoxy}methyl)-5-methyl-1,3-thiazol-2-yl]morpholine] is 112 to 114 °C; for `Cc1oc(-c2ccccc2)nc1COc1ccc(C(=O)Nc2nn(-c3ccccc3)cc2C=O)cc1` [Example 233, N-(4-formyl-1-phenyl-1H-pyrazol-3-yl)-4-[(5-methyl-2-phenyl-1,3-oxazol-4-yl)methoxy]benzamide] it is 185 to 186 °C; for `COc1cc(COc2nn(-c3ccccc3)cc2C=O)ccc1OCc1nc(-c2cccc(O)c2)oc1C` [Example 234, 3-[(4-{[2-(3-hydroxyphenyl)-5-methyl-1,3-oxazol-4-yl]methoxy}-3-methoxybenzyl)oxy]-1-phenyl-1H-pyrazole-4-carbaldehyde] it is 193 to 194 °C.
Compound `COC(=O)COc1cccc(-c2nc(COc3ccc(COc4nn(-c5ccccc5)cc4C=O)cc3OC)c(C)o2)c1` [Example 235, methyl (3-{4-[(4-{[(4-formyl-1-phenyl-1H-pyrazol-3-yl)oxy]methyl}-2-methoxyphenoxy)methyl]-5-methyl-1,3-oxazol-2-yl}phenoxy)acetate] showed a melting point of 107 to 109 °C.
Regarding `COC(=O)c1cccc(-c2nc(COc3ccc(COc4nn(-c5ccccc5)cc4C=O)cc3)c(C)o2)c1` [Example 237, methyl 3-{4-[(4-{[(4-formyl-1-phenyl-1H-pyrazol-3-yl)oxy]methyl}phenoxy)methyl]-5-methyl-1,3-oxazol-2-yl}benzoate], the melting point was in the range of 161 to 162 °C.
`COc1cc(COc2nn(-c3ccccc3)cc2C=O)ccc1OCc1nc(N2CCOCC2)sc1C` [Example 238, 3-({3-methoxy-4-[(5-methyl-2-morpholin-4-yl-1,3-thiazol-4-yl)methoxy]benzyl}oxy)-1-phenyl-1H-pyrazole-4-carbaldehyde] displayed a melting point of 149 to 150 °C.
With `CCc1nc(/C=C/c2cn(-c3ccccc3)nc2OCc2ccc(OCc3nc(-c4ccc(C(=O)O)o4)oc3C)c(OC)c2)cs1` [Example 242, 5-[4-({4-[({4-[(E)-2-(2-ethyl-1,3-thiazol-4-yl)ethenyl]-1-phenyl-1H-pyrazol-3-yl}oxy)methyl]-2-methoxyphenoxy}methyl)-5-methyl-1,3-oxazol-2-yl]-2-furancarboxylic acid], the melting point lay within 154 to 155 °C.
